For one experiment, the target named is Genome polyprotein (Hepatitis C virus genotype 1a (isolate H77), UniProt P27958). In words: Continuous Spectrophotometric Assay.
Chain of Genome polyprotein (P27958 1027-1657 limits assumed): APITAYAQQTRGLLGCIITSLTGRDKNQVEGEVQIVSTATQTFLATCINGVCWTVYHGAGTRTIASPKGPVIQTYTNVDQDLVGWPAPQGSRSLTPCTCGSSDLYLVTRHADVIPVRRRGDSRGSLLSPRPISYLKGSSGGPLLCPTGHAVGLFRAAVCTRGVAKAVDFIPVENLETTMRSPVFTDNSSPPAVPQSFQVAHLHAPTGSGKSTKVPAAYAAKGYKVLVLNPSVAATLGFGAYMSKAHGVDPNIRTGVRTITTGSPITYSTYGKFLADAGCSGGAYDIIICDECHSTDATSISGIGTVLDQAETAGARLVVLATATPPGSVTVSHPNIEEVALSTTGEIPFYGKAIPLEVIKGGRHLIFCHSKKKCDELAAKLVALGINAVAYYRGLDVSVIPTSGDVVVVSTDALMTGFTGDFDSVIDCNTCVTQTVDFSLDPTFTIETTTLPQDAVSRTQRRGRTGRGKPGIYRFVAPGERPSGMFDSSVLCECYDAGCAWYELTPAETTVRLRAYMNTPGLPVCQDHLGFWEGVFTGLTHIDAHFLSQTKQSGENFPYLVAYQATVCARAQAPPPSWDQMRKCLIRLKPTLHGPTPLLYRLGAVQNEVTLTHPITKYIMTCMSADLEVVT
Conditions: not given
On the procedure: Proteolytic cleavage of the ester linkage between the Nva (L-norvaline) and the chromophore (PAP) was monitored for change in absorbance at 370 nm. Initial velocities were determined using linear regression and kinetic constants were obtained by fitting the data to the Michaelis-Menten equation.
In turn, `CCCC(NC(=O)[C@@H]1C[C@@H]2CN1C(=O)[C@H](C1CCCCC1)NC(=O)Cc1cccc(c1)OCCCN2S(=O)(=O)c1ccccc1)C(=O)C(=O)NCC(=O)N[C@H](C(=O)N(C)C)c1ccccc1` (stereo partly drawn) [3-{[(7R,9S,12S)-6-(benzenesulfonyl)-12-cyclohexyl-11,14-dioxo-2-oxa-6,10,13-triazatricyclo[14.3.1.1^{7,10}]henicosa-1(20),16,18-trien-9-yl]formamido}-N-({[(S)-(dimethylcarbamoyl)(phenyl)methyl]carbamoyl}methyl)-2-oxohexanamide] yielded a Ki of 36 nM.
The same measure, in the same setting: the figure for `CCCC(NC(=O)[C@@H]1C[C@@H]2CN1C(=O)[C@H](C1CCCCC1)NC(=O)Cc1cccc(c1)OCCCS2(=O)=O)C(=O)C(=O)NCC(=O)N[C@H](C(=O)N(C)C)c1ccccc1` (stereo partly drawn) [(2S)-({N-[3-({[(7R,9S,12S)-12-cyclohexyl-6,6-dioxido-11,14-dioxo-2-oxa-6-thia-10,13-diazatricyclo[14.3.1.17,10]henicosa-1(20),16,18-trien-9-yl]carbonyl}amino)-2-oxohexanoyl]glycyl}amino)(phenyl)acetic acid N,N-dimethyl amide] is 3300 nM.

Staying with this experiment, now noted: pH 6.5; 30 °C.
On to `CCCC(NC(=O)[C@@H]1C[C@@H]2CN1C(=O)[C@H](C1CCCCC1)NC(=O)Cc1cccc(c1)OCCCCO2)C(=O)C(=O)NCC(=O)N[C@H](C(=O)N(C)C)c1ccccc1` (stereo partly drawn) [3-{[(5S,8S,10R)-5-cyclohexyl-3,6-dioxo-11,16-dioxa-4,7-diazatricyclo[15.3.1.1^{7,10}]docosa-1(20),17(21),18-trien-8-yl]formamido}-N-({[(S)-(dimethylcarbamoyl)(phenyl)methyl]carbamoyl}methyl)-2-oxohexanamide], for which the Ki came to 7 nM.
Still for that read-out and setting: the figure for `CCCC(NC(=O)[C@@H]1C[C@@H]2CN1C(=O)[C@H](C1CCCCC1)NC(=O)Cc1cccc(c1)OCCO2)C(=O)C(=O)NCC(=O)N[C@H](C(=O)N(C)C)c1ccccc1` (stereo partly drawn) [3-{[(6R,8S,11S)-11-cyclohexyl-10,13-dioxo-2,5-dioxa-9,12-diazatricyclo[13.3.1.1^{6,9}]icosa-1(19),15,17-trien-8-yl]formamido}-N-({[(S)-(dimethylcarbamoyl)(phenyl)methyl]carbamoyl}methyl)-2-oxohexanamide] is 30 nM; for `CCCC(NC(=O)[C@@H]1C[C@@H]2CN1C(=O)[C@H](C1CCCCC1)NC(=O)Cc1cccc(c1)OCCCS2)C(=O)C(=O)NCC(=O)N[C@H](C(=O)N(C)C)c1ccccc1` (stereo partly drawn) [(2S)-({N-[3-({[(7R,9S,12S)-12-cyclohexyl-11,14-dioxo-2-oxa-6-thia-10,13-diazatricyclo[14.3.1.17,10]henicosa-1(20),16,18-trien-9-yl]carbonyl}amino)-2-oxohexanoyl]glycyl}amino)(phenyl)acetic acid N,N-dimethyl amide] it is 10 nM.
Take `CCC[C@H](NC(=O)[C@@H]1C[C@@H]2CN1C(=O)[C@H](C(C)(C)C)NC(=O)Cc1cccc(c1)OCCCO2)C(=O)C(=O)NCC(=O)N[C@H](C(=O)N(C)C)c1ccccc1` [(2S)-({N-[(3S)-3-({[(7R,9S,12S)-12-tert-butyl-11,14-dioxo-2,6-dioxa-10,13-diazatricyclo[14.3.1.17,10]henicosa-1(20),16,18-trien-9-yl]carbonyl}amino)-2-oxohexanoyl]glycyl}amino)(phenyl)acetic acid N,N-dimethyl amide]: the affinity corresponds to a Ki of 15 nM.
`CCC[C@H](NC(=O)[C@@H]1C[C@H]2CN1C(=O)[C@H](C(C)(C)C)NC(=O)Cc1cccc(c1)OCCCO2)C(=O)C(=O)NCC(=O)N[C@H](C(=O)N(C)C)c1ccccc1` [(2S)-({N-[(3S)-3-({[(7S,9S,12S)-12-tert-butyl-11,14-dioxo-2,6-dioxa-10,13-diazatricyclo[14.3.1.17,10]henicosa-1(20),16,18-trien-9-yl]carbonyl}amino)-2-oxohexanoyl]glycyl}amino)(phenyl)acetic acid N,N-dimethyl amide] displayed a Ki of 130 nM.

Broadly, the Ki is a measure of affinity in units of concentration, obtained from inhibition or displacement. Low values mean a stronger hold on the target, high ones a looser hold on the target.

Values taken from BindingDB's records for doi:10.1021/jm050820s (Schering-Plough Research Institute, 2006).
